Reference: patent US11178823B2, “Systems and methods for using light energy to facilitate penetration of substances in plants” (priority 2014, dated 2021)

Assays:
HLB bacteria = experiment: PCR analysis for presence of HLB in leaves of lased and antimicrobial-treated citrus trees; format: in vivo; details: 2 fluid ounces per tree, 0-29 = HLB detected, 30 and above = no HLB detected; for Presence of HLB using PCR analysis, Sample A: lased and treated leaves; for Presence of HLB using PCR analysis, Sample B: leaves at furthest point from lased leaves, not lased or treated
Description: The following experimental data is provided to exemplarily illustrate various aspects of the inventive subject matter presented herein. More specifically, the data illustrates the surprising uptake of antimicrobials to effectively treat a plant. Citrus trees were tested in three groups consisting of a control group (trees 1-6), an antimicrobial plus surfactant group (trees 7-12), and an antimicrobial only group (trees 13-18). The trees in each group were lased and, in some instances, treated with an antimicrobial, and analyzed two weeks later to determine the amount of HLB present in the tree using Polymerase Chain Reaction (“PCR”) analysis. It should be noted that all the trees in this experiment had HLB at the beginning of the experiment. The antimicrobial used was oxytetracycline (FireLine™) that includes a surfactant (Tactit) for the antimicrobial plus surfactant group, and oxytetracycline without a surfactant for the antimicrobial only group. The laser parameters included a jump speed of 2000 mm/s, marking speed 850 mm/s, and marking intensity: 70%, and a pulse frequency of 15000 Hz.
The control group (trees 1-6) was lased, but not treated with any antimicrobials and/or surfactants. With the exception of one tree (tree 7) that was only lased, the antimicrobial plus surfactant group was lased and treated with an antimicrobial that comprised a surfactant. With the exception of one tree (tree 13) that was only lased, the antimicrobial only group was lased and treated with only an antimicrobial (with no surfactant). The trees in each group were lased on only one side of the tree (the side comprising the “A” samples). If an antimicrobial (with or without surfactant) was applied, such antimicrobial was applied to the side of the tree that was lased. The antimicrobials were prepared at 200 ppm, 500 ppm, 1000 ppm, 1500 ppm, and 2000 ppm in a 1 gallon volume. Only 2 fluid ounces per tree (10 fluid ounces per group of trees) was used of each concentration for this experiment.
After two weeks, leaves that were lased and, in some instances, treated with an antimicrobial were sampled and analyzed. Additionally, leaves located at the furthest point from the lased leaves (the side comprising the “B” samples), which were not directly lased and/or treated, were sampled and analyzed. Leaves were grinded and prepared for PCR analysis for detecting the presence of HLB. PCR determines if there is live HLB DNA. PCR analysis amplifies and copies small segments of DNA. It then yields enough sample DNA to run the analysis. With this experiment there are six trees per treatment group (control group, antimicrobial plus surfactant group, and antimicrobial only group). Each tree falls under two ranges for determining HLB content, values 29 and lower are considered HLB positive (greening) and values 30 and over are trees considered HLB negative (non-greening). If the analysis takes over 30 PCR cycles then it cannot find any target HLB DNA. If the analysis runs against the maximum of 40 PCR cycles then it becomes indeterminate and it could not find one copy of HLB. It should be noted that there could be numbers over “30” but still be no presence of HLB because there are only artifacts of dead HLB bacteria DNA in numbers over “30”.

[1] = Uptake and phloem movement of fluorescent test substances applied onto lased citrus leaves (fluorescent microscopy); format: in vivo
Source text: To illustrate the effectiveness of the methods disclosed herein, a test substance was used to show the enhanced penetration through foliar application. Among test substances, phloem mobile compounds NBDG, a fluorescent analog of glucose (a natural sugar found in plants), and carboxyfluorescin-SE (a membrane permeable substance only fluorescent in live cells) were used in an experiment. Both substances were manually applied onto lased leaves (using a 13×39 dot indentation pattern 801) at a concentration of 5 mg/mL.
FIGS. 8A-8B were observed under fluorescent microscopy and FIG. 8B was taken 10 minutes after the application of 5 μL of NBDG.
Within 2 h, fluorescent NBDG was observed within the lateral veins of the lased leaves (shown in FIGS. 9A-9B) emerging from the application area. FIGS. 9A-9B are fluorescent micrographs of a portion of a lased citrus leaf. […] FIG. 9B is another image showing the NBDG in a minor veins 903 and main vein 905.
It should be appreciated that movement of the foliarly applied NBDG continued down the stem and towards the roots. […] FIGS. 11A-11B show bark sections of young trees. […] The distance between the lased leaves and bark segment 1103 was approximately 20 cm.

[2] = 200 ppm, without surfactant, tree 14, two weeks
[3] = 500 ppm, without surfactant, tree 15, two weeks
[4] = 1000 ppm, without surfactant, tree 16, two weeks
[5] = 2000 ppm, with surfactant (Tactit), tree 12, two weeks

Row | SMILES | Presence of HLB using PCR analysis, Sample A (HLB bacteria; 200 ppm, with surfactant (Tactit), tree 8, two weeks after treatment) | Presence of HLB using PCR analysis, Sample B (HLB bacteria; 200 ppm, with surfactant (Tactit), tree 8, two weeks) | Presence of HLB using PCR analysis, Sample A (HLB bacteria; [2]) | Presence of HLB using PCR analysis, Sample B (HLB bacteria; [2]) | Presence of HLB using PCR analysis, Sample A (HLB bacteria; 500 ppm, with surfactant (Tactit), tree 9, two weeks) | Presence of HLB using PCR analysis, Sample A (HLB bacteria; [3]) | Presence of HLB using PCR analysis, Sample B (HLB bacteria; [3]) | Presence of HLB using PCR analysis, Sample A (HLB bacteria; [4]) | Presence of HLB using PCR analysis, Sample B (HLB bacteria; [4]) | Presence of HLB using PCR analysis, Sample B (HLB bacteria; 1500 ppm, with surfactant (Tactit), tree 11, two weeks) | Presence of HLB using PCR analysis, Sample B (HLB bacteria; 1500 ppm, without surfactant, tree 17, two weeks) | Presence of HLB using PCR analysis, Sample A (HLB bacteria; [5]) | Presence of HLB using PCR analysis, Sample B (HLB bacteria; [5]) | Presence of HLB using PCR analysis, Sample B (HLB bacteria; 2000 ppm, without surfactant, tree 18, two weeks) | Uptake into un-lased control leaf (fluorescence) ([1]; applied to the surface of un-lased leaves) | Time until fluorescence observed in the phloem of bark tissue ([1]; bark approximately 20 cm from the treated lased leaf, young trees) | Time until fluorescence observed within the lateral veins of the lased leaves ([1]; lased citrus leaf, 5 mg/mL, emerging from the application area) | Movement in the leaf four hours after application ([1]; lased citrus leaf, 5 mg/mL, four hours after application) | Uptake into lased leaf (fluorescence) ([1]; lased citrus leaf, 13×39 dot indentation pattern, 5 mg/mL, 5 μL, 10 minutes after application)
1 | CN(C)[C@@H]1C(O)=C(C(N)=O)C(=O)[C@@]2(O)C(O)=C3C(=O)c4c(O)cccc4[C@@](C)(O)[C@H]3[C@H](O)[C@@H]12 [oxytetracycline] | 30.6 | 33.5 | 27.0 | 26.1 | 35.4 | 34.7 | 26.6 | 37.8 | 28.7 | 36.8 | 26.2 | 37.6 | 36.1 | 27.6 |  |  |  |  | 
2 | O=[N+]([O-])c1ccc(N[C@H]2C(O)O[C@H](CO)[C@@H](O)[C@@H]2O)c2nonc12 (stereo partly shown) [NBDG] |  |  |  |  |  |  |  |  |  |  |  |  |  |  | no fluorescence | ≤ 8 h | ≤ 2 h | reached and passed the base of the petiole | spread of fluorescence within the lased area
